Assay results taken from patent US10016498B2, “D-amino acid derivative-modified peptidoglycan and methods of use thereof” (priority 2012, dated 2018).

Columns and labels:
[1] = tested on: L. monocytogenes PG; assay: alkDala labeling of newly synthesized PG: growth phase, vancomycin-BODIPY colocalization, antibiotic treatment; assay type: cell-based
[2] = tested on: peptidoglycan of gram-positive bacteria; assay: Incorporation of cyclooctyne D-amino acids into peptidoglycan, azido-PEG3-carboxyrhodamine labeling, flow cytometry and microscopy; assay type: cell-based, L. monocytogenes
Description: With all three amino acids in hand, their incorporation into the peptidoglycan of gram-positive bacteria was tested. The bacteria were grown for one-doubling time in the presence of 5 mM unnatural amino acids 30 to 32. The cells were then washed to remove excess amino acid and labeled with 20 μM of the commercially available azido-PEG3-carboxyrhodamine. This fluorophore efficiently labels terminal-alkyne-tagged peptidoglycan under copper-click conditions. The cells were then washed to remove excess probe, fixed, and studied by flow-cytometry and microscopy.
To further confirm that peptidoglycan was being labeled, a competition experiment was performed.

[3] = tested on: L. monocytogenes in J774 macrophages; assay: alkDala labeling of intracellular bacteria during J774 macrophage infection; assay type: cell-based; details: 50 mM alkDala, azido-fluor 488
[4] = tested on: L. monocytogenes PG; assay: HPLC and mass spectrometry of muropeptides from purified PG; assay type: cell-based
Source text: Having ruled out other potential sites of D-alanine derivative labeling, direct evidence of its incorporation into PG was sought. PG comprises a repeating disaccharide to which is conjugated a short peptide, termed the stem peptide (FIG. 1A). Although newly synthesized PG stem peptide usually terminates in D-alanine-D-alanine, diverse bacterial phyla produce and incorporate D-amino acids other than D-alanine into those positions. (17, 18) The process is flexible; various natural and unnatural D-amino acids appear to incorporate, albeit at varying efficiencies. […] After digesting the PG with muramidase, HPLC was used to detect muropeptides by absorbance at either 204 nm (to visualize all species) or 500 nm (to identify fluorophore-containing fragments). […] PG samples from E. coli incubated in azDala alone were analyzed; and it was determined that the fraction of D-alanine that had been replaced with the synthetic analog was roughly 50% of the tetrapeptide pool and 15% of the total muropeptide population.
FIGS. 2A-D. AlkDala incorporates into L. monocytogenes PG. […] Absorbance at 204 nm, blue, and at 500 nm, red, are shown. […] The most abundant peaks detected at 500 nm were collected and subjected to analysis by mass spectrometry, (D), to identify the chemical structure of the alkDala-containing muropeptides conjugated to azido-fluor 488, (B).

[5] = tested on: L. monocytogenes; assay type: cell-based
[6] = tested on: E. coli PG; assay type: cell-based, Escherchia coli
[7] = tested on: bacteria (E. coli, Bacillus subtilis, L. monocytogenes, Mycobacterium tuberculosis, Streptomyces coelicolor, Corynebacterium glutamicum); assay type: cell-based

With `C#CC[C@@H](N)C(=O)O` [alkDala, R-propargylglycine] as the compound, how does the “colocalization of signal with vancomycin-BODIPY, a marker of nascent PG” value ([1]; one generation, azido-fluor 545) read?
The value was “colocalized”.

What about the “labeling of listeria lacking PBP5 versus wild type” value [2] of the same compound?
The value was “enhanced labeling over wild type”.

What about the “site of labeling of intracellular L. monocytogenes” value ([3]; longer pulse (3.5 hrs)) of the same compound?
The value was “at the septa and poles”.

What about the “site of labeling of intracellular L. monocytogenes” value ([3]; short pulse (last 30 minutes)) of the same compound?
The value was “labeled more at the septa”.

And the “position of insertion in the PG stem peptide” value ([4]; L. monocytogenes)?
The value was “fifth position”.

And the “change of PG structure compared to D-alanine incubation” value ([4]; long periods of incubation)?
Its value is “did not appreciably change PG structure”.

And the “labeling of dal- dat- D-alanine auxotroph compared to wildtype” value [5]?
The value was “labeled more strongly”.

And the “position of insertion in the PG stem peptide” value [6]?
Its value is “fourth position”.

And the “cell surface labeling by microscopy” value [7]?
Its value is “Clear cell surface labeling of all species tested”.

`C[C@@H]1O[C@@H]1P(=O)(O)O` [fosfomycin] was tested. Which “effect of antibiotic treatment on alkDala labeling” value (“effect of antibiotic treatment” for short) [1] did it give?
Its value is “completely abrogated”.

Which “effect of antibiotic treatment” value [1] does the source give for `C[C@@H](O)[C@H]1C(=O)N2C(C(=O)O)=C(S[C@@H]3CN[C@H](C(=O)N(C)C)C3)[C@H](C)[C@H]12` [meropenem] here?
The value was “much weaker effect”.

penicillin was tested. Which “effect of antibiotic treatment” value [1] did it give?
The value was “much weaker effect”.
